Results as given in US8518953B2, “Aminopyrimidines useful as inhibitors of protein kinases” (Vertex Pharmaceuticals Incorporated, priority 2007, dated 2013).

Tests used:
GSK-3α/β pTYR = assay: pTYR Biomarker Analysis in brains of MCAO rats (Western blot); type: in vivo, rat; settings: all doses, at the termination of the study, compared to vehicle treated rats
Protocol: RIPA consists of 0.5 ml 10% SDS, 2.5 ml 10% Sodium Deoxycholate, 0.5 ml NP40, and 46.5 ml PBS. […] 10 mL of lysis buffer (modified RIPA) is added to tissue (1 ml/½ brain) and homogenized on ice. The lysates are then centrifuged at 10000 rpm for 10 min at 4° C. The supernatant is then transferred to a new tube and kept on ice. The supernatant samples are respun at 10000 rpm for 10 min at 4° C. The supernatant is then transferred to a new tube and kept on ice. An aliquot of the supernatant is taken and the protein is measured with the Pierce BCA protein assay kit (cat#23225), using BSA standard curve (do a 1:25 dilution in PBS). The remaining supernatant is diluted to 1 ug/ul with Biorad Laemmli Sample buffer (cat#161-0737) with β-mercaptoethanol added. The samples are boiled for 5 min at 95° C. and spun in a microfuge for 1 minute. The samples are snap frozen on dry ice and stored at −20° C. 10 ug of protein/lane (10 uL) is then loaded and the Western blot is run according to Example 3. Inhibition of GSK-3α/β pTYR is determined by comparing the density of the protein band in samples obtained from animals treated with compound to samples from vehicle treated animals. […] Lysates were analyzed by Western blot (see Example 3) and probed for GSK-3α/β pTYR levels.

β-catenin = β-catenin induction in brains of MCAO rats (Western blot); type: in vivo, rat; settings: all doses, at the termination of the study
Protocol: Hypotonic Lysis Buffer consists of 10 mM HEPES, 10 mM KCL, 1.5 mM MgCl2, 1.0 mM EDTA, 1.0 mM DTT, 1× Roche protease inhibitor cocktail, and 1.0 mM AEBSF Calbiochem protease inhibitor cocktail (cat#539134). All concentrations are final and are diluted in water. First, hypotonic lysis buffer is added to the tissue at 5×'s weight. The tissue is then broken up on ice using the end of a syringe plunger. Next, the samples are freeze-thawed five times. The lysates are then transferred to ultracentrifuge tubes and spun at 100,000 g for 35 min at 4° C. The supernatants are then collected and an aliquot is taken to measure protein with the Pierce BCA protein assay kit (cat#23225), using BSA standard curve. The remaining protein lysates are diluted 1:1 with laemmli sample buffer containing β-mercaptoethanol. The protein concentration is then normalized. The samples are boiled for 5 min at 95° C. followed by a spin at 14,000 rpm in a mini-centrifuge for 1 min. The samples are then snap frozen with dry ice and stored at −20° C. The samples are first loaded on 10% Tris-glycine gel (10 uL/well). […] Induction of β-catenin is determined by comparison of the density of protein band in samples obtained from compound treated animals with that of vehicle treated animals. […] Lysates were analyzed by Western blot (see Example 3) and probed for GSK-3α/β pTYR levels. […]

`Cc1nc(-c2ccccc2Cl)nc(Nc2n[nH]c3ncc(F)cc23)c1C` [Compound I-1, N-(2-(2-chlorophenyl)-5,6-dimethylpyrimidin-4-yl)-5-fluoro-1H-pyrazolo[3,4-b]pyridin-3-amine] was tested, and the “GSK-3α/β pTYR signal in the brain” value (GSK-3α/β pTYR) was “significant reduction in pTYR signal” and the “induction of β-catenin in the brain” value (β-catenin) was “no induction of β-catenin”.
